# Measurements published in patent publication US20200216439A1, “HETERO-1,5,6,7-TETRAHYDRO-4H-INDOL-4-ONES” (BAYER PHARMA AKTIENGESELLSCHAFT, priority 2015, published 2020).
# Target: T1, catalytic domain of human Bub1 (amino acids 704-1085) (Homo sapiens, UniProt O43683)
# T1 construct: catalytic domain of human Bub1 (amino acids 704-1085); His6 (N); made in house; host or cells: Hi5 insect cells
# Assay: Bub1 kinase assay (TR-FRET)
# Format: biochemical
# Details: TR-FRET; ATP 10 μM, peptide substrate 1 μM; 60 min at 22° C.; average or median if tested more than once; read-out: Inhibition of Bub1 kinase IC50
# Method in brief: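 Eleven concentrations (0.1 nM–20 μM, duplicate) fitted by 4-parameter logistic for IC50. Read-out: EDTA-stopped TR-FRET (665/620 nm) detecting anti-phosphoserine binding to biotin-peptide (1 μM). Reaction used 10 μM ATP, 60 min at 22 °C, after 15 min compound preincubation with His-tagged human Bub1 704-1085.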
# T1 sequence (O43683 704-1085): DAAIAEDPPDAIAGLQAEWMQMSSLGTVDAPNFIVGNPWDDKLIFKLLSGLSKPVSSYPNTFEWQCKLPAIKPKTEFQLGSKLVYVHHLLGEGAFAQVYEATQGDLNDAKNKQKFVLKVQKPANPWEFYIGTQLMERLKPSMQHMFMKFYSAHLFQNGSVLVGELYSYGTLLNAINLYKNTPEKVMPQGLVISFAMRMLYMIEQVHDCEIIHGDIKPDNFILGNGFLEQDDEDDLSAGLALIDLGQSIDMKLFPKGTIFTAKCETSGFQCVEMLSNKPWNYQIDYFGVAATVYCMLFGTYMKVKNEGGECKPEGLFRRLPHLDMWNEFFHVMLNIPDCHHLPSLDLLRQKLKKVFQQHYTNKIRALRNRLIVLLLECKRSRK
row,Structure (SMILES),IC50 [µM]
1,"CC(=O)Nc1cc(-c2[nH]c3c(c2Nc2ccccc2)C(=O)CN(C(=O)OCCF)C3)ccn1 [Example 184, 2-Fluoroethyl 2-(2-acetamidopyridin-4-yl)-3-anilino-4-oxo-1,4,5,7-tetrahydro-6H-pyrrolo[2,3-c]pyridine-6-carboxylate]",0.008
2,"COc1ccc(C(=O)Nc2cc(-c3[nH]c4c(c3Nc3ccccc3)C(=O)CN(C(=O)N3CCCC3)C4)ccn2)cc1F [Example 293, 3-Fluoro-4-methoxy-N-4-[4-oxo-3-(phenylamino)-6-(pyrrolidin-1-ylcarbonyl)-4,5,6,7-tetrahydro-1H-pyrrolo[2,3-c]pyridin-2-yl]pyridin-2-ylbenzamide]",0.01
3,O=C1CNCc2[nH]c(-c3ccncc3)c(Nc3ccccc3)c21 [Example 14],0.047
4,"COCCOC(=O)N1CC(=O)c2c([nH]c(-c3ccncc3)c2Nc2ccccc2)C1 [Example 80, 2-Methoxyethyl 4-oxo-3-(phenylamino)-2-(pyridin-4-yl)-1,4,5,7-tetrahydro-6H-pyrrolo[2,3-c]pyridine-6-carboxylate]",0.011
5,"CC(=O)Nc1cc(-c2[nH]c3c(c2Nc2ccccc2)C(=O)CN(C(=O)N(C)C)C3)ccn1 [Example 124, 2-(2-Acetamidopyridin-4-yl)-3-anilino-N,N-dimethyl-4-oxo-1,4,5,7-tetrahydro-6H-pyrrolo[2,3-c]pyridine-6-carboxamide]",0.004
6,"COc1cnccc1-c1[nH]c2c(c1Nc1ccccc1)C(=O)CN(S(=O)(=O)C(F)F)C2 [Example 110, 6-[(Difluoromethyl)sulfonyl]-2-(3-methoxypyridin-4-yl)-3-(phenylamino)-1,5,6,7-tetrahydro-4H-pyrrolo[2,3-c]pyridin-4-one]",0.006
7,CN(C)C(=O)N1CC(=O)c2c([nH]c(-c3ccncc3)c2Nc2ccccc2)C1 [Example 82],0.004
8,"O=C(Nc1cc(-c2[nH]c3c(c2Nc2ccccc2)C(=O)COC3)ccn1)NC1CC1 [Example 55, 1-Cyclopropyl-3-{4-[4-oxo-3-(phenylamino)-1,4,5,7-tetrahydropyrano[3,4-b]pyrrol-2-yl]pyridin-2-yl}urea]",0.098
9,"O=C1CN(C(=O)c2cnc[nH]2)Cc2[nH]c(-c3ccncc3)c(Nc3ccccc3)c21 [Example 59, 6-(1H-Imidazol-5-ylcarbonyl)-3-(phenylamino)-2-(pyridin-4-yl)-1,5,6,7-tetrahydro-4H-pyrrolo[2,3-c]pyridin-4-one]",0.01
10,"CC(=O)N1CC(=O)c2c([nH]c(-c3ccncc3OCC(F)(F)F)c2Nc2ccccc2)C1 [Example 229, 6-Acetyl-3-(phenylamino)-2-[3-(2,2,2-trifluoroethoxy)pyridin-4-yl]-1,5,6,7-tetrahydro-4H-pyrrolo[2,3-c]pyridin-4-one]",0.163
11,"O=C1CN(S(=O)(=O)C(F)F)Cc2[nH]c(-c3ccncc3)c(Nc3ccccc3)c21 [Example 68, 6-[(Difluoromethyl)sulfonyl]-3-(phenylamino)-2-(pyridin-4-yl)-1,5,6,7-tetrahydro-4H-pyrrolo[2,3-c]pyridin-4-one]",0.005
12,"O=C1CNCc2[nH]c(-c3ccnc(NC(=O)[C@@H]4C[C@@H]4F)c3)c(Nc3ccccc3)c21 (relative stereo) [Example 136, rel-(1S,2S)—N-[4-(3-Anilino-4-oxo-4,5,6,7-tetrahydro-1H-pyrrolo[2,3-c]pyridin-2-yl)pyridin-2-yl]-2-fluorocyclopropanecarboxamide]",0.081
13,"CCN(CC)C(=O)N1CC(=O)c2c([nH]c(-c3ccnc(NC(C)=O)c3)c2Nc2ccccc2)C1 [Example 167, 2-(2-Acetamidopyridin-4-yl)-3-anilino-N,N-diethyl-4-oxo-1,4,5,7-tetrahydro-6H-pyrrolo[2,3-c]pyridine-6-carboxamide]",0.006
14,"O=C1CN(S(=O)(=O)c2cnc[nH]2)Cc2[nH]c(-c3ccnc(NC(=O)C4(F)CC4)c3)c(Nc3ccccc3)c21 [Example 165, N-{4-[3-Anilino-6-(1H-imidazol-5-ylsulfonyl)-4-oxo-4,5,6,7-tetrahydro-1H-pyrrolo[2,3-c]pyridin-2-yl]pyridin-2-yl}-1-fluorocyclopropanecarboxamide]",0.014
15,"CS(=O)(=O)N1CC(=O)c2c([nH]c(-c3ccnc(NC(=O)[C@H]4C[C@H]4F)c3)c2Nc2ccccc2)C1 (relative stereo) [Example 148, rel-(1R,2R)—N-{4-[3-Anilino-6-(methylsulfonyl)-4-oxo-4,5,6,7-tetrahydro-1H-pyrrolo[2,3-c]pyridin-2-yl]pyridin-2-yl}-2-fluorocyclopropanecarboxamide]",0.004
16,"CC(=O)N1CC(=O)c2c([nH]c(-c3ccnc(C)n3)c2Nc2ccccc2)C1 [Example 26, 6-Acetyl-2-(2-methylpyrimidin-4-yl)-3-(phenylamino)-1,5,6,7-tetrahydro-4H-pyrrolo[2,3-c]pyridin-4-one]",0.097
17,"O=C1CN(C(=O)N2CCNC2=O)Cc2[nH]c(-c3ccncc3)c(Nc3ccccc3)c21 [Example 91, 6-[(2-Oxoimidazolidin-1-yl)carbonyl]-3-(phenylamino)-2-(pyridin-4-yl)-1,5,6,7-tetrahydro-4H-pyrrolo[2,3-c]pyridin-4-one]",0.014
18,"CNC(=O)N1CC(=O)c2c([nH]c(-c3ccnc(NC(C)=O)c3)c2Nc2ccccc2)C1 [Example 168, 2-(2-Acetamidopyridin-4-yl)-3-anilino-N-methyl-4-oxo-1,4,5,7-tetrahydro-6H-pyrrolo[2,3-c]pyridine-6-carboxamide]",0.005
19,"CN(C)S(=O)(=O)N1CC(=O)c2c([nH]c(-c3ccncc3OCC3CC3)c2Nc2ccccc2)C1 [Example 282, 2-[3-(Cyclopropylmethoxy)pyridin-4-yl]-N,N-dimethyl-4-oxo-3-(phenylamino)-1 4,5,7-tetrahydro-6H-pyrrolo[2,3-c]pyridine-6-sulfonamide]",0.012
20,"COC(=O)N1CC(=O)c2c([nH]c(-c3ccnc(NC(=O)C4CC4(F)F)c3)c2Nc2ccccc2)C1 (racemic) [Example 146, Methyl 3-anilino-2-[2-({[(1RS)-2,2-difluorocyclopropyl]carbonyl}amino)pyridin-4-yl]-4-oxo-1,4,5,7-tetrahydro-6H-pyrrolo[2,3-c]pyridine-6-carboxylate]",0.01
21,"CC(C)(C)C(=O)N1CC(=O)c2c([nH]c(-c3ccncc3)c2Nc2ccccc2)C1 [Example 9, 6-(2,2-Dimethylpropanoyl)-3-(phenylamino)-2-(pyridin-4-yl)-1,5,6,7-tetrahydro-4H-pyrrolo[2,3-c]pyridin-4-one]",0.004
22,"CNC(=O)N1CC(=O)c2c([nH]c(-c3ccnc(NC(C)=O)c3)c2Nc2ccc(F)cc2)C1 [Example 313, 2-[2-(Acetylamino)pyridin-4-yl]-3-[(4-fluorophenyl)amino]-N-methyl-4-oxo-1,4,5,7-tetrahydro-6H-pyrrolo[2,3-c]pyridine-6-carboxamide]",0.017
23,"O=C1CN(S(=O)(=O)c2cccnc2)Cc2[nH]c(-c3ccncc3)c(Nc3ccccc3)c21 [Example 75, 3-(phenylamino)-2-(pyridin-4-yl)-6-(pyridin-3-ylsulfonyl)-1,5,6,7-tetrahydro-4H-pyrrolo[2,3-c]pyridin-4-one]",0.006
24,"COC(=O)N1CC(=O)c2c([nH]c(-c3ccncc3OCC(F)(F)F)c2Nc2ccccc2)C1 [Example 242, Methyl 4-oxo-3-(phenylamino)-2-[3-(2,2,2-trifluoroethoxy)pyridin-4-yl]-1,4,5,7-tetrahydro-6H-pyrrolo[2,3-c]pyridine-6-carboxylate]",0.057
25,"CCn1c2c(c(Nc3ccccc3)c1-c1ccncc1)C(=O)CN(S(C)(=O)=O)C2 [Example 65, 1-Ethyl-6-(methylsulfonyl)-3-(phenylamino)-2-(pyridin-4-yl)-1,5,6,7-tetrahydro-4H-pyrrolo[2,3-c]pyridin-4-one]",1.68
26,"CC(=O)Nc1cc(-c2[nH]c3c(c2Nc2ccccc2)C(=O)CN(C(=O)c2cocn2)C3)ccn1 [Example 195, N-{4-[3-Anilino-6(1,3-oxazol-4-ylcarbonyl)-4-oxo-4,5,6,7-tetrahydro-1H-pyrrolo[2,3-c]pyridin-2-yl]pyridin-2-yl}acetamide]",0.024
27,"CC(=O)Nc1cc(-c2[nH]c3c(c2Nc2ccccc2)C(=O)CN(C(=O)N(C)C(C)C)C3)ccn1 [Example 186, 2-(2-Acetamidopyridin-4-yl)-3-anilino-N-isopropyl-N-methyl-4-oxo-1,4,5,7-tetrahydro-6H-pyrrolo[2,3-c]pyridine-6-carboxamide]",0.003
28,"CS(=O)(=O)N1CC(=O)c2c([nH]c(-c3ccncc3OCC(F)F)c2Nc2ccccc2)C1 [Example 232, 3-Anilino-2-[3-(2,2-difluoroethoxy)pyridin-4-yl]-6-(methylsulfonyl)-1,5,6,7-tetrahydro-4H-pyrrolo[2,3-c]pyridin-4-one]",0.012
29,"CC(C)(C)OC(=O)N1CC(=O)c2c([nH]c(-c3ccnc(NC(=O)[C@@H]4C[C@@H]4F)c3)c2Nc2ccccc2)C1 [Example 196, tert-Butyl 3-anilino-2-[2-({[(1S,2S)-2-fluorocyclopropyl]carbonyl}amino)pyridin-4-yl]-4-oxo-1,4,5,7-tetrahydro-6H-pyrrolo[2,3-c]pyridine-6-carboxylate]",0.007
30,"COc1ccc(C(=O)Nc2cc(-c3[nH]c4c(c3Nc3ccccc3)C(=O)CN(C(=O)OC(C)(C)C)C4)ccn2)c(C)c1 [Example 266, tert-Butyl 2-2-[(4-methoxy-2-methylbenzoyl)amino]pyridin-4-yl-4-oxo-3-(phenylamino)-1,4,5,7-tetrahydro-6H-pyrrolo[2,3-c]pyridine-6-carboxylate]",0.072
